Data from ChEMBL document CHEMBL4828719, “H2dpa derivatives containing pentadentate ligands: An acyclic adjuvant potentiates meropenem activity in vitro and in vivo against metallo-β-lactamase-producing Enterobacterales” (Eur J Med Chem, 2021).
pKi: −log10 of the molar value. Converted amounts (≈) assume the structure as drawn. The source made the active and inactive calls. The calls are words filed in the database; no cut-off is given here.

Legend:
Escherichia coli [1] = experiment: Synergistic antibacterial activity against VIM-1 producing Escherichia coli DH5alpha assessed as fractional inhibitory concentration index incubated for 16 to 20 hrs in presence of meropenem by checkerboard assay; assay type: functional, DH5[alpha]; conditions: time 16-20 hrs
Klebsiella pneumoniae [2] = experiment: Antibacterial activity against NDM-producing carbapenem resistant Klebsiella pneumoniae infected in BALB/c mouse sepsis model assessed as swollen and degenerated liver cells with localized focal necrosis at 10 mg/kg, ip observed for 2 days by HE staining based assay; assay type: functional, organism-based; conditions: time 2.0 day
Klebsiella pneumoniae [3] = experiment: (§1) Antibiotic adjuvant activity against meropenem-treated NDM-producing carbapenem resistant Klebsiella pneumoniae infected in BALB/c mouse sepsis model assessed as reduction in neutrophil infiltration in red pulp of spleen at 10 mg/kg, ip in the presence of meropenem observed for 2 days by HE staining based assay; assay type: functional, organism-based; conditions: time 2.0 day
[4] = Zinc chelation-dependent inhibition of NDM-1 (unknown origin) expressed in Escherichia coli DH5 alpha using meropenem as substrate preincubated with enzyme for 5 mins followed by substrate addition in the presence of zinc sulfate
Escherichia coli [5] = experiment: Antibacterial activity against VIM-1 producing Escherichia coli DH5alpha assessed as decrease in bacterial growth incubated for 16 to 20 hrs by CLSI based microdilution method; assay type: functional; conditions: DH5[alpha], time 16-20 hrs
Escherichia coli [6] = experiment: Antibiotic adjuvant activity against VIM-1 producing Escherichia coli DH5alpha assessed as potentiation of meropenem-induced antibacterial activity incubated for 16 to 20 hrs by agar disc diffusion assay; assay type: functional, organism-based; conditions: DH5[alpha], time 16-20 hrs
[7] = Toxicity in sheep RBC assessed as induction of hemolysis at 1024 microg/ml measured after 1 hr relative to control; assay type: tissue-based, Ovis aries, Erythrocyte; conditions: sheep red blood cells, at 1024 µg/mL, read-out: Activity
[8] = Acute toxicity in BALB/c mouse assessed as change in albumin level in serum at 50 mg/kg, ip administered as single dose measured after 24 hrs; assay type: organism-based; conditions: in vivo
Escherichia coli [9] = experiment: Antibacterial activity against NDM-1 producing Escherichia coli DH5 alpha assessed as bacterial growth at 8 ug/ml incubated for 16 to 20 hrs by CLSI based microdilution method; assay type: functional; conditions: dose 8 µg/ml; time 16-20 hrs
[10] = Non competitive inhibition of IMP-1 (unknown origin) assessed as inhibition of substrate hydrolysis by measuring decrease in Vmax using imipenem as substrate preincubated with enzyme for 5 mins followed by substrate addition by Lineweaver-Burk plot analysis
Klebsiella pneumoniae [11] = experiment: as §1, with “complete liver lobule structure with radially arranged hepatic cords and visible central veins” for “reduction in neutrophil infiltration in red pulp of spleen”; assay type: functional, organism-based; conditions: time 2.0 day
Escherichia coli [12] = experiment: Antibiotic adjuvant activity against NDM-1 producing Escherichia coli DH5alpha assessed as potentiation of meropenem-induced antibacterial activity incubated for 16 to 20 hrs by agar disc diffusion assay; assay type: functional, organism-based; conditions: DH5[alpha], time 16-20 hrs
Klebsiella oxytoca = experiment: Antibacterial activity against MBL producing Klebsiella oxytoca isolates assessed as inhibition of bacterial growth at 64 ug/ml incubated for 16 to 20 hrs by CLSI based microdilution method; assay type: functional, organism-based; conditions: dose 64.0 µg/ml, time 16-20 hrs
[13] = Non competitive inhibition of VIM-2 (unknown origin) assessed as inhibition of substrate hydrolysis by measuring decrease in Vmax using nitrocefin as substrate preincubated with enzyme for 5 mins followed by substrate addition by Lineweaver-Burk plot analysis
Escherichia coli [14] = experiment: Antibacterial activity against NDM-1 producing Escherichia coli DH5alpha assessed as decrease in bacterial growth incubated for 16 to 20 hrs by CLSI based microdilution method; assay type: functional; conditions: DH5[alpha], time 16-20 hrs
Klebsiella pneumoniae [15] = experiment: Antibiotic adjuvant activity against meropenem-treated NDM-producing carbapenem resistant Klebsiella pneumoniae infected in BALB/c mouse sepsis model assessed as reduction of bacterial load in liver at 10 mg/kg, ip in the presence of meropenem observed for 2 days; assay type: functional, organism-based; conditions: time 2.0 day
Escherichia coli [16] = experiment: Antibiotic adjuvant activity against meropenem-treated VIM-1 producing Escherichia coli DH5 alpha assessed as bacterial growth at 8 ug/ml incubated for 16 to 20 hrs in the presence of meropenem by CLSI based microdilution method; assay type: functional; conditions: dose 8 µg/ml; time 16-20 hrs
Citrobacter freundii = experiment: Antibacterial activity against MBL producing Citrobacter freundii isolates assessed as inhibition of bacterial growth at 64 ug/ml incubated for 16 to 20 hrs by CLSI based microdilution method; assay type: functional, organism-based; conditions: dose 64.0 µg/ml, time 16-20 hrs
[17] = Zinc chelation-dependent inhibition of IMP-1 (unknown origin) expressed in Escherichia coli DH5 alpha using imipenem as substrate preincubated with enzyme for 5 mins followed by substrate addition in the presence of zinc sulfate
[18] = Acute toxicity in BALB/c mouse assessed as change in hemoglobin level at 50 mg/kg, ip administered as single dose measured after 24 hrs; assay type: organism-based; conditions: in vivo
[19] = Acute toxicity in BALB/c mouse assessed as change in RBC count at 50 mg/kg, ip administered as single dose measured after 24 hrs; assay type: organism-based; conditions: in vivo
Klebsiella pneumoniae [20] = experiment: Antibacterial activity against NDM-producing carbapenem resistant Klebsiella pneumoniae infected in BALB/c mouse sepsis model assessed as dilated and congested central vein with neutrophil cell infiltration within the red pulp of the spleen at 10 mg/kg, ip observed for 2 days by HE staining based assay; assay type: functional, organism-based; conditions: time 2.0 day
Klebsiella pneumoniae [21] = experiment: Antibiotic adjuvant activity against meropenem-treated NDM-producing carbapenem resistant Klebsiella pneumoniae infected in BALB/c mouse sepsis model assessed as mouse rescue at 10 mg/kg, ip in the presence of meropenem measured after 48 hrs; assay type: functional
Escherichia coli [22] = experiment: Antibiotic adjuvant activity against meropenem-treated IMP-4 producing Escherichia coli DH5 alpha assessed as inhibition of bacterial growth at 8 ug/ml incubated for 16 to 20 hrs in the presence of meropenem and 1 to 10 uM zinc sulfate by CLSI based microdilution method; assay type: functional, organism-based; conditions: dose 8.0 µg/ml, time 16-20 hrs
Escherichia coli [23] = experiment: Antibiotic adjuvant activity against meropenem-treated NDM-1 producing Escherichia coli DH5 alpha assessed as bacterial growth at 8 ug/ml incubated for 16 to 20 hrs in the presence of meropenem by CLSI based microdilution method; assay type: functional; conditions: dose 8 µg/ml; time 16-20 hrs
Escherichia coli [24] = experiment: Antibacterial activity against IMP-4 producing Escherichia coli DH5 alpha assessed as bacterial growth at 8 ug/ml incubated for 16 to 20 hrs by CLSI based microdilution method; assay type: functional; conditions: dose 8 µg/ml; time 16-20 hrs
GES1 = experiment: Cytotoxicity against human GES1 cells assessed as live cells by measuring green fluorescence at 32 ug/ml measured after 24 hrs by calceinAM/propidium iodide staining based fluorescence microscopy; assay type: cell-based; conditions: ges1, 24 h, dose 32 µg/ml
Escherichia coli [25] = experiment: Antibiotic adjuvant activity against meropenem-treated NDM-1 producing Escherichia coli DH5 alpha assessed as inhibition of bacterial growth at 8 ug/ml incubated for 16 to 20 hrs in the presence of meropenem and 1 to 10 uM zinc sulfate by CLSI based microdilution method; assay type: functional, organism-based; conditions: dose 8.0 µg/ml, time 16-20 hrs
Escherichia coli [26] = experiment: Antibiotic adjuvant activity against meropenem-treated IMP-4 producing Escherichia coli DH5 alpha assessed as bacterial growth at 8 ug/ml incubated for 16 to 20 hrs in the presence of meropenem and 100 uM zinc sulfate by CLSI based microdilution method; assay type: functional; conditions: dose 8 µg/ml; time 16-20 hrs
[27] = Acute toxicity in BALB/c mouse assessed as pathological changes in spleen at 50 mg/kg, ip administered as single dose measured after 24 hrs by hematoxylin and eosin staining based assay; assay type: organism-based; conditions: in vivo
Escherichia coli [28] = experiment: Synergistic antibacterial activity against NDM-1 producing Escherichia coli DH5alpha assessed as fractional inhibitory concentration index incubated for 16 to 20 hrs in presence of meropenem by checkerboard assay; assay type: functional, DH5[alpha]; conditions: time 16-20 hrs
[29] = Acute toxicity in BALB/c mouse assessed as change in platelet count at 50 mg/kg, ip administered as single dose measured after 24 hrs; assay type: organism-based; conditions: in vivo

SMILES | fractional inhibitory concentration index (FICI) (Escherichia coli [1]) | Activity (Klebsiella pneumoniae [2]) | Activity (Klebsiella pneumoniae [3]) | Activity [4] | MIC (Escherichia coli [5]) | Activity (Escherichia coli [6]) | hemolysis at 1 h, 1024 microg/ml [7] | Activity [8] | Activity (Escherichia coli [9]) | pKi [10] | Activity (Klebsiella pneumoniae [11]) | Activity (Escherichia coli [12]) | Activity (Klebsiella oxytoca) | pKi [13] | MIC (Escherichia coli [14]) | Activity (Klebsiella pneumoniae [15]) | Activity (Escherichia coli [16]) | Activity (Citrobacter freundii) | Activity [17] | Activity [18] | further results
C[C@H](C(=O)O)N(Cc1cccc(C(=O)O)n1)Cc1cccc(C(=O)O)n1 | 0.07 | inactive | Active | inactive | 128 µg/mL (≈ 356 µM) | Active | < 7% | Non-Toxic | 95% | 5.80 | Active | Active | inactive | 5.21 | 128 µg/mL (≈ 356 µM) | Active | <10% | inactive | inactive | Non-Toxic | Activity [19]: Non-Toxic; Activity (Klebsiella pneumoniae [20]): inactive; Activity (Klebsiella pneumoniae [21]): 83%; Activity (Escherichia coli [22]): Active; Activity (Escherichia coli [23]): <10%; Activity (Escherichia coli [24]): 95%; Activity (GES1): Non-Toxic; Activity (Escherichia coli [25]): Active; Activity (Escherichia coli [26]): 100%; Activity [27]: Non-Toxic; fractional inhibitory concentration index (FICI) (Escherichia coli [28]): 0.07; Activity [29]: Non-Toxic
C[C@@H](C(=O)O)N(Cc1cccc(C(=O)O)n1)Cc1cccc(C(=O)O)n1 | 0.07 | inactive | Active | inactive | 128 µg/mL (≈ 356 µM) | Active | < 7% | Non-Toxic | 95% | 5.81 | Active | Active | inactive | 5.23 | 128 µg/mL (≈ 356 µM) | Active | <10% | inactive | inactive | Non-Toxic | Activity [19]: Non-Toxic; Activity (Klebsiella pneumoniae [20]): inactive; Activity (Klebsiella pneumoniae [21]): 83%; Activity (Escherichia coli [22]): Active; Activity (Escherichia coli [23]): <10%; Activity (Escherichia coli [24]): 95%; Activity (GES1): Non-Toxic; Activity (Escherichia coli [25]): Active; Activity (Escherichia coli [26]): 100%; Activity [27]: Non-Toxic; fractional inhibitory concentration index (FICI) (Escherichia coli [28]): 0.07; Activity [29]: Non-Toxic
